Laboratory results reported in patent publication US5330992A, “1-cyclopropyl-4-pyridyl-quinolinones” (priority 1992, dated 1994).
Read-outs that look alike come from different tables or passages of the source.

Columns and labels:
human topoisomerase II = biological target: T1, human topoisomerase II (Homo sapiens, UniProt P11388); assay: Mammalian Topoisomerase II Inhibition Assay (DNA-topo II complex formation); type: biochemical; conditions: read-out: TopoII Inh. EC50
T1 construct: Topo II was purified from late log phase suspension cultures of HeLa WIS; endogenous in cells; host or cells: HeLa WIS suspension cultures, late log phase (enzyme purified from the cells)
T1 sequence (P11388 whole entry): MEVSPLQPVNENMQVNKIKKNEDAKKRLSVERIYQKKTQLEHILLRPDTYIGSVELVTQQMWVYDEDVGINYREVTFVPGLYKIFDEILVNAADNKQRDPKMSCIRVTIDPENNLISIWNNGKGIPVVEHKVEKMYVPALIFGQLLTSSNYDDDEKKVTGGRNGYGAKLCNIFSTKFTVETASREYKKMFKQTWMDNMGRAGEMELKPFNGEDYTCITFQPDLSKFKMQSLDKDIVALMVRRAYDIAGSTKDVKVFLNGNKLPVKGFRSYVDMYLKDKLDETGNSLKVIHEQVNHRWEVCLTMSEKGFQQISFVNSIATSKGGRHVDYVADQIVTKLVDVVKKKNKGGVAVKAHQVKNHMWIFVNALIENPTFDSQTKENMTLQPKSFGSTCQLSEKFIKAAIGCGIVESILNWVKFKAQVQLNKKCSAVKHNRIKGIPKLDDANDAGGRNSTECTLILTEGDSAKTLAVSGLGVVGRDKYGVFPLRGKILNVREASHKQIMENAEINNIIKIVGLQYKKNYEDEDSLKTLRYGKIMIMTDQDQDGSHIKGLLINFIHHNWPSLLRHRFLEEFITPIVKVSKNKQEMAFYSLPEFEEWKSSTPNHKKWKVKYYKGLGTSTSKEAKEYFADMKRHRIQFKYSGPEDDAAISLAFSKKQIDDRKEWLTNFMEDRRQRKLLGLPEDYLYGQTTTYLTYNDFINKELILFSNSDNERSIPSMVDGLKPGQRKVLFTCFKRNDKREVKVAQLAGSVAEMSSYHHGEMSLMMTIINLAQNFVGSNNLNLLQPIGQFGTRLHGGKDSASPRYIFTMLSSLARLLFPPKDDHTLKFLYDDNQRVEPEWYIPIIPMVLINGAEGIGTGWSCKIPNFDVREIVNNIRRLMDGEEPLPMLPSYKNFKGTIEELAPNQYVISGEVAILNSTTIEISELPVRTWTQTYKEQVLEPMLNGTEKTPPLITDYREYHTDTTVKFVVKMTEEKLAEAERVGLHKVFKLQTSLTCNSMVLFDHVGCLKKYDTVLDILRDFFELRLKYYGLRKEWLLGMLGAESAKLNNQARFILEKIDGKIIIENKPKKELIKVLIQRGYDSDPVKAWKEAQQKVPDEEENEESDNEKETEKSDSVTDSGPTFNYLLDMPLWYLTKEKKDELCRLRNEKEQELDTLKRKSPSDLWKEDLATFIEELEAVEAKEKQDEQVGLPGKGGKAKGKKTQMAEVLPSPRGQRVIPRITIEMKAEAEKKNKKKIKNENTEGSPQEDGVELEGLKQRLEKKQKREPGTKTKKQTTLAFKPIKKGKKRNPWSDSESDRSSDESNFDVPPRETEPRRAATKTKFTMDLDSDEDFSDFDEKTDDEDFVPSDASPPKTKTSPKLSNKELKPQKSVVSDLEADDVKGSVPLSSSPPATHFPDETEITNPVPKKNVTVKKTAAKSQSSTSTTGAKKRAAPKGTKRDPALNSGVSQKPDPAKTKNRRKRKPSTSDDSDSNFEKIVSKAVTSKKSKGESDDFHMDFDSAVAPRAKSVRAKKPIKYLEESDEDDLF
Method: Mammalian Topoisomerase II Inhibition Assay Procedure
The assay quantitates the amount of topo II covalently complexed by DNA at equilibrium during a topo II reaction. This assay determines the potential of a compound to stabilize this complex, which potential is closely related to the cytotoxicity of the compound.
Assays (in duplicate) were assembled at 4° C.
4 ng 3' end labeled (^32 P) pBR322 DNA (10^7 DMP/μg)
The assay mix including the test compound was incubated for 20 minutes at 37° C. The reaction was terminated at 37° C. by the addition of 3 μl 10% SDS followed by the addition of 266 μl 10 mM Tris-Cl pH 7.5, 20 μg/ml BSA, 20 μg/ml calf thymus DNA, 1% SDS.
A SDS/protein precipitate was formed by the addition of 28 μl 2.5M KCl followed by chilling on ice for a minimum of 10 minutes. The precipitate was collected and washed with a Brandell cell harvester on a GFB glass fiber filter membrane as follows. The contents of the assay tube were drawn up into the harvester. The tube was then rinsed 7X with 10 mM Tris-Cl pH 7.5, 1 mM EDTA and 100 mM KCl. […] After drying, CPM was determined by liquid scintillation counting with 5 ml Biofluor (NEN Research Products) or Readisafe (Beckman Instruments Inc.) cocktail.
This solution then was diluted 1/5 into water and serially thereafter in either 0.02N sodium hydroxide or 0.04N hydrogen chloride, respectively. The stock solution and serial dilution of the test compound was stored at -20° C. prior to testing.
Screening of test compound--As an initial screen, the test compound was tested at a final concentration of 2, 20 and 200 μg/ml. The compound was then retested at a range of concentrations (usually 2-3X steps) bridging their approximate EC50 's, as estimated by the prescreen.
Controls--A solvent control which indicates the base level of topo II-DNA complex formed in the absence of the test compound was included in each test. A control, in which topo II was omitted, was included for each test compound at the highest drug concentration tested.
Reference Agent--A dose response curve with mAMSA at 0.01, 0.08, 0.16, 0.32, 1.0 and 10 μg/ml was included in each test.
The maximal DNA-topo II complex formed is taken as that equal to that formed at the nearly saturating dose of mAMSA (10 μg/ml).

[1] = tested on: P388 murine leukemia cells; assay: Malignant cell cytotoxicity, one-hour exposure (clonogenic survival in soft agar); type: cell-based; conditions: Mus musculus, 1 hr exposure, read-out: IC50 P388 1 hr. exp.
Method: (§1) Examples of compound I having Topo II activity were tested for malignant cell cytotoxicity. In vitro cytotoxicity was assayed by determining cell survival following exposure of P388 murine leukemia cells to a range of test compound concentrations. Cytotoxicity was quantitated following either a one-hour exposure or continuous exposure of P388 cells to test compound.
(§2) Cytotoxicity following a one-hour exposure of cells to drug was assayed by quantitating clonogenic cell survival according to a published procedure [Freshney, R. L. (1987) Culture of Animal Cells. A Manual of Basic Technique. Wiley-Liss Inc., New York, N.Y., pp. 140-144]. Briefly, following drug exposure cells were plated in soft agar and incubated (37°, 5% CO2) for 7-10 days during which time viable cells form visible colonies. Cytotoxicity following continuous exposure of cells to test compound was assayed by quantitating total P388 cells on a Coultier Counter following a 48-hour co-incubation of test compound with cells. P388 cells were maintained in log phase throughout the duration of cytotoxicity assays.
(§3) The percentage of cells surviving relative to an untreated control was graphed as a function of increasing drug concentration.

[2] = tested on: P388 murine leukemia cells; assay: Malignant cell cytotoxicity, continuous 48-hour exposure (Coulter Counter); type: cell-based; conditions: Mus musculus, read-out: IC50 P388 cont. exp.
Method: as §1, §2, §3

[3] = EC50 = concentration with activity equal to EC50 of reference mAMSA

Compound | EC50 (human topoisomerase II; [3]) [µM] | IC50 [1] [µM] | IC50 [2] [µM] | EC50 (human topoisomerase II; * Bell-shaped curve, E = extrapolated) [µM] | EC50 (human topoisomerase II; * Bell-shaped curve) [µM]
COc1cccc(OC)c1Cc1cn(C2CC2)c2c(F)c(-c3cc(C)nc(C)c3)c(F)cc2c1=O [Example 1, 1-Cyclopropyl-6,8-difluoro-7-[2,6-dimethyl-4-pyridinyl]-3-[2,6-dimethoxyphenylmethyl]-1,4-dihydro-quinolin-4-one] | 37 | 80 | 20 |  | 
Cc1cc(-c2c(F)cc3c(=O)c(Cc4ccc(F)cc4O)cn(C4CC4)c3c2F)cc(C)n1 [Example 2, 1-cyclopropyl-6,8-difluoro-7-[2,6-dimethyl-4-pyridinyl]-3-[4-fluoro-2-hydroxyphenylmethyl) -4(H)-quinolone] | 1 | 1.6 |  |  | 
Cc1cc(-c2c(F)cc3c(=O)c(Cc4ccccn4)cn(C4CC4)c3c2F)cc(C)n1 [Example 4] | 12 |  | 4 |  | 
COc1cc(Cc2cn(C3CC3)c3c(F)c(-c4cc(C)nc(C)c4)c(F)cc3c2=O)cc(OC)c1OC [Example 5] | > 190 |  | 18 |  | 
Cc1cc(-c2c(F)cc3c(=O)c(Cc4ccc(Cl)cc4)cn(C4CC4)c3c2F)cc(C)n1 [Example 6] | 7.7 | 20 | 6.1 |  | 
COc1ccc(Cc2cn(C3CC3)c3c(F)c(-c4cc(C)nc(C)c4)c(F)cc3c2=O)cc1 [Example 7] |  | 21 | 14 | 14 | 
COc1ccccc1Cc1cn(C2CC2)c2c(F)c(-c3cc(C)nc(C)c3)c(F)cc2c1=O [Example 8] | 11 | 37 | 6.9 |  | 
COc1cccc(Cc2cn(C3CC3)c3c(F)c(-c4cc(C)nc(C)c4)c(F)cc3c2=O)c1 [Example 9] | 14 | 20 | 6.1 |  | 
Cc1cc(-c2c(F)cc3c(=O)c(Cc4ccc5c(c4)OCO5)cn(C4CC4)c3c2F)cc(C)n1 [Example 10] |  |  | 8.5 |  | 34
COc1cccc(Cc2cn(C3CC3)c3c(F)c(-c4cc(C)nc(C)c4)c(F)cc3c2=O)c1OC [Example 11] | > 210 |  | 8.9 |  | 
COc1ccc(Cc2cn(C3CC3)c3c(F)c(-c4cc(C)nc(C)c4)c(F)cc3c2=O)c(OC)c1 [Example 12] | > 210 | > 200 | 7.4 |  | 
Cc1cc(-c2c(F)cc3c(=O)c(Cc4ccncc4)cn(C4CC4)c3c2F)cc(C)n1 [Example 13] | 9.1 |  | 2.3 |  | 
COc1cc(OC)c(Cc2cn(C3CC3)c3c(F)c(-c4cc(C)nc(C)c4)c(F)cc3c2=O)c(OC)c1 [Example 14] | > 190 |  |  |  | 
Cc1cc(-c2c(F)cc3c(=O)c(Cc4ccccc4C(=O)O)cn(C4CC4)c3c2F)cc(C)n1 [Example 15] | 200 |  |  |  | 
Cc1cc(-c2c(F)cc3c(=O)c(Cc4ccc[nH]4)cn(C4CC4)c3c2F)cc(C)n1 [Example 16] | 5.1 | 0.93 |  |  | 
COc1ccc(Cc2cn(C3CC3)c3c(F)c(-c4cc(C)nc(C)c4)c(F)cc3c2=O)c(OC)c1C [Example 17] | > 210 |  |  |  | 
CC(=O)Nc1ccc(Cc2cn(C3CC3)c3c(F)c(-c4cc(C)nc(C)c4)c(F)cc3c2=O)cc1 [Example 19] | 47 |  |  |  | 
Cc1cc(-c2c(F)cc3c(=O)c(Cc4c(CO)cnc(C)c4O)cn(C4CC4)c3c2F)cc(C)n1 [Example 21] | 4.6 |  |  |  | 

Compound | EC50 (human topoisomerase II; [3]) [µM] | IC50 [1] [µM] | IC50 [2] [µM] | EC50 (human topoisomerase II; * Bell-shaped curve, E = extrapolated) [µM] | EC50 (human topoisomerase II; * Bell-shaped curve) [µM]
Cc1cc(-c2c(F)cc3c(=O)c(Cc4ccccc4NC(=O)C(F)(F)F)cn(C4CC4)c3c2F)cc(C)n1 [Example 22] | 4.7 |  |  |  | 
COc1ccc(OC)c(Cc2cn(C3CC3)c3c(F)c(-c4cc(C)nc(C)c4)c(F)cc3c2=O)c1 [Example 23] | 20 |  |  |  | 
Cc1cc(-c2c(F)cc3c(=O)c(Cc4c[nH]cn4)cn(C4CC4)c3c2F)cc(C)n1 [Example 24] | 1.6 | 0.39 |  |  | 
Cc1cc(-c2c(F)cc3c(=O)c(Cc4ccccc4NS(C)(=O)=O)cn(C4CC4)c3c2F)cc(C)n1 [Example 25] | 3.3 |  |  |  | 
Cc1cc(-c2c(F)cc3c(=O)c(Cc4ccc(O)cc4)cn(C4CC4)c3c2F)cc(C)n1 [Example 27, 1-Cyclopropyl-6,8-difluoro-7-[2,6-dimethyl-4-pyridinyl]-3-[4-hydroxyphenylmethyl]-1,4-dihydro-quinoline-4-one] | 1.2 | 1.5 | 0.45 |  | 
COc1cc(Cc2cn(C3CC3)c3c(F)c(-c4cc(C)nc(C)c4)c(F)cc3c2=O)cc(OC)c1O [Example 28] | 7.6 | 8.2 | 4.6 |  | 
Cc1cc(-c2c(F)cc3c(=O)c(Cc4cc(O)c(O)c(O)c4)cn(C4CC4)c3c2F)cc(C)n1 [Example 29] | 0.6 | 3 | 8 |  | 
Cc1cc(-c2c(F)cc3c(=O)c(Cc4cccc(O)c4)cn(C4CC4)c3c2F)cc(C)n1 [Example 31] | 1.1 | 2.2 | 1.5 |  | 
Cc1cc(-c2c(F)cc3c(=O)c(Cc4ccc(O)c(O)c4)cn(C4CC4)c3c2F)cc(C)n1 [Example 32] | 0.16 | 0.6 | 1.4 |  | 
Cc1cc(-c2c(F)cc3c(=O)c(Cc4cccc(O)c4O)cn(C4CC4)c3c2F)cc(C)n1 [Example 34] | 0.36 | 0.88 | 0.32 |  | 
Cc1cc(-c2c(F)cc3c(=O)c(Cc4c(O)cc(O)cc4O)cn(C4CC4)c3c2F)cc(C)n1 [Example 35] | 0.098 | 0.47 |  |  | 
Cc1cc(-c2c(F)cc3c(=O)c(Cc4ccc(O)c(C)c4O)cn(C4CC4)c3c2F)cc(C)n1 [Example 36] | 0.2 |  |  |  | 
Cc1cc(-c2c(F)cc3c(=O)c(Cc4cccc(F)c4O)cn(C4CC4)c3c2F)cc(C)n1 [Example 37] | 0.15 | 125 |  |  | 
Cc1cc(-c2c(F)cc3c(=O)c(Cc4cc(O)ccc4O)cn(C4CC4)c3c2F)cc(C)n1 [Example 38] | 0.16 | 0.36 |  |  | 
Cc1cc(-c2c(F)cc3c(=O)c(Cc4ccc(N)cc4)cn(C4CC4)c3c2F)cc(C)n1 [Example 39] | 7.2 |  |  |  | 
Cc1cc(-c2c(F)cc3c(=O)c(Cc4ccccc4N)cn(C4CC4)c3c2F)cc(C)n1 [Example 41a] | 2.1 |  |  |  | 
CC(=O)Nc1ccccc1Cc1cn(C2CC2)c2c(F)c(-c3cc(C)nc(C)c3)c(F)cc2c1=O [Example 41b] | 5.1 |  |  |  | 
